The text below walks through data of PubChem BioAssay (NCI).

Among the test systems are HT29 colon; IGROV1 ovarian; K-562 leukemia; NCI-H460 lung; NCI-H522 lung; OVCAR-3 ovarian; OVCAR-8 ovarian; SNB-19 CNS; SW-620 colon; TK-10 renal.
Assay in all cases: NCI tumour cell line growth inhibition, 48 h

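Step 1: Grow cells in 96-well plates. Step 2: Expose to compound for 48 hours at 5 concentrations. Step 3: Interpolate endpoints linearly; if unreached, use highest concentration. TGI marks complete inhibition of growth.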 Where a SMILES comes first, the peptide text is derived from it. [ ]: non-standard residue; d: D form. The star is where a group is joined. ξ: configuration not given here. NMeF = CN[CH](Cc1ccccc1)C(=O)O; ξNMe2Val = CC(C)C(C(=O)*)N(C)C; NMeV = CN[CH](C(=O)O)C(C)C; OtBu = CC(C)(C)O*

For the compound `O=c1c2c3c(sc2nc2n1NC=NN2)CCCC3`, the TGI in the assay on HT29 colon is 38.9 µM; in the assay on IGROV1 ovarian it was over 56.6 µM; with K-562 leukemia it was 6.81 µM; in the assay with NCI-H460 lung it was 38.3 µM; in the assay with NCI-H522 lung, 36.4 µM; with OVCAR-3 ovarian it was 30.5 µM. Also, the TGI was 58.2 µM with OVCAR-8 ovarian, over 71.5 µM in the assay with SNB-19 CNS, 38.7 µM in the assay with SW-620 colon and over 56 µM with TK-10 renal.

On to `COc1ccc(Nc2nc(N)c(C(=O)c3ccc(Cl)cc3)s2)cc1`, for which the TGI in the assay with HT29 colon is 5.28 µM; with IGROV1 ovarian it was 17.7 µM; in the assay on K-562 leukemia it was over 100 µM; in the assay on NCI-H460 lung it was 4.62 µM; with NCI-H522 lung, under 0.01 µM; with OVCAR-3 ovarian it was 0.421 µM. Further, the TGI in the assay with OVCAR-8 ovarian is 15 µM; in the assay on SNB-19 CNS, 31.2 µM; with SW-620 colon, over 100 µM; with TK-10 renal it was over 46.3 µM.

Regarding `CC(C)C(C(=O)N(C)C(Cc1ccccc1)C(=O)N(C)C(C(=O)N(C)C(C(=O)N1CCCC1C(=O)OC(C)(C)C)C(C)C)C(C)C)N(C)C` (stereo not given) (ξNMe2Val-[NMeF][NMeV][NMeV]P-OtBu; configuration not given here), the TGI with HT29 colon is over 100 µM; in the assay on IGROV1 ovarian it was over 100 µM; in the assay on K-562 leukemia it was over 100 µM; in the assay on NCI-H460 lung it was over 100 µM; with NCI-H522 lung, 46.5 µM; with OVCAR-3 ovarian, over 100 µM. Moreover, the TGI with OVCAR-8 ovarian, with SNB-19 CNS, in the assay with SW-620 colon and with TK-10 renal was over 100 µM in each case.

With `CCCCCCCCCCCC[N+]12CC[N+](C)(CC1)CC2`, the TGI in the assay with HT29 colon is 51.4 µM; in the assay on IGROV1 ovarian, 11.8 µM; in the assay with K-562 leukemia, 53.2 µM; in the assay on NCI-H460 lung, 26.5 µM; in the assay on NCI-H522 lung, 46 µM; with OVCAR-3 ovarian, over 100 µM. The TGI with OVCAR-8 ovarian is over 100 µM; in the assay on SNB-19 CNS it was 38.7 µM; in the assay on SW-620 colon it was over 100 µM; in the assay with TK-10 renal, 5.6 µM.

Turning to `CC(=O)OCC1OC(N=[N+]=[N-])C(OC(C)=O)C(OC(C)=O)C1OC1OC(COC(C)=O)C(OC(C)=O)C(OC(C)=O)C1OC(C)=O` (stereo not given), the TGI in the assay on HT29 colon, with IGROV1 ovarian, with K-562 leukemia, in the assay on NCI-H460 lung, in the assay on NCI-H522 lung and with OVCAR-3 ovarian was over 100 µM in each case. Further, the TGI with OVCAR-8 ovarian, in the assay on SNB-19 CNS, in the assay on SW-620 colon and with TK-10 renal was over 100 µM throughout.

With `Nc1ccn(C2CCC(COP(=O)(O)OCC(O)COP(=O)(O)OCC3OC(n4cc(F)c(=O)[nH]c4=O)CC3O)O2)c(=O)n1` (stereo not given), the TGI in the assay on HT29 colon, with IGROV1 ovarian, with K-562 leukemia, in the assay on NCI-H460 lung, in the assay on NCI-H522 lung and in the assay on OVCAR-3 ovarian was over 100 µM throughout. Further, the TGI in the assay with OVCAR-8 ovarian, in the assay with SNB-19 CNS, in the assay on SW-620 colon and in the assay on TK-10 renal was over 100 µM throughout.

Regarding `CCOC(=O)N1CCC2(CC1)C[C@@](C(C)=O)(c1ccccc1)C(C)O2` (stereo not given in full), the TGI with HT29 colon, in the assay on IGROV1 ovarian, with K-562 leukemia, with NCI-H460 lung, in the assay on NCI-H522 lung and in the assay on OVCAR-3 ovarian was over 100 µM each time. For the same compound, the TGI with OVCAR-8 ovarian, in the assay with SNB-19 CNS, in the assay with SW-620 colon and in the assay with TK-10 renal was over 100 µM throughout.

In the case of `CCSc1nc(N/N=C/c2cccs2)c2cnn(CO)c2n1`, the TGI was 13.4 µM with HT29 colon; 10.7 µM with IGROV1 ovarian; 52.7 µM in the assay on K-562 leukemia; 18.6 µM in the assay on NCI-H460 lung; 15.5 µM in the assay on NCI-H522 lung; 19 µM in the assay on OVCAR-3 ovarian. Moreover, the TGI in the assay with OVCAR-8 ovarian stood at 14.9 µM; in the assay on SNB-19 CNS, 27.1 µM; in the assay on SW-620 colon, 24.2 µM; with TK-10 renal, 21.9 µM.

As for `C/C(=N\NC(N)=S)c1nc2ncccc2[nH]1`, the TGI in the assay on HT29 colon, in the assay with IGROV1 ovarian, in the assay on K-562 leukemia, in the assay with NCI-H460 lung, with NCI-H522 lung and in the assay with OVCAR-3 ovarian was over 100 µM throughout. The TGI with OVCAR-8 ovarian, in the assay on SNB-19 CNS, with SW-620 colon and in the assay on TK-10 renal was over 100 µM throughout.

As to `COC(=O)C(=O)C(C(=O)OC)C(=O)C(=O)Nc1c(Cl)cc([N+](=O)[O-])cc1Cl` (stereo not given), the TGI in the assay on HT29 colon, in the assay on IGROV1 ovarian, in the assay with K-562 leukemia, in the assay with NCI-H460 lung, in the assay on NCI-H522 lung and in the assay with OVCAR-3 ovarian was over 100 µM throughout. Besides, the TGI with OVCAR-8 ovarian, in the assay with SNB-19 CNS, in the assay with SW-620 colon and with TK-10 renal was over 100 µM each time.

On to `CCN(C(=O)N[C@H](C(=O)N[C@@H](CSC)C(=O)N[C@@H](C)C(=O)OC)C(C)C)c1ccccc1`, for which the TGI in the assay with HT29 colon is 27.2 µM; with IGROV1 ovarian it was 23.9 µM; in the assay with K-562 leukemia it was over 100 µM; in the assay with NCI-H460 lung, 32.5 µM; in the assay on NCI-H522 lung it was 22.3 µM; in the assay with OVCAR-3 ovarian it was 34.5 µM. The TGI with OVCAR-8 ovarian was 38.2 µM; in the assay on SNB-19 CNS, 33.4 µM; with SW-620 colon, 28 µM; in the assay with TK-10 renal, 26.4 µM.

With `COC(=O)c1ccccc1C1CN=NC12Cc1ccc3c(c1C2=O)CCC3` (stereo not given), the TGI is over 100 µM in the assay with HT29 colon; over 100 µM in the assay with IGROV1 ovarian; over 100 µM in the assay with K-562 leukemia; over 100 µM in the assay with NCI-H460 lung; 54.7 µM in the assay with NCI-H522 lung; over 100 µM in the assay on OVCAR-3 ovarian. Also, the TGI in the assay on OVCAR-8 ovarian, in the assay with SNB-19 CNS, with SW-620 colon and in the assay on TK-10 renal was over 100 µM each time.

With `CN(C)CC1CCC/C(=C\c2ccc(OC(=O)/C=C/c3ccc(Cl)cc3)cc2)C1=O` (stereo not given), the TGI with HT29 colon is 7.12 µM; in the assay with IGROV1 ovarian, 3.35 µM; with K-562 leukemia, 4.04 µM; in the assay with NCI-H460 lung, 18.1 µM; in the assay with NCI-H522 lung it was 1.91 µM; with OVCAR-3 ovarian it was 12.4 µM. Moreover, the TGI in the assay on OVCAR-8 ovarian is 19.3 µM; in the assay on SNB-19 CNS, 13.9 µM; in the assay on SW-620 colon it was 6.44 µM; in the assay on TK-10 renal, 4.73 µM.
